Results reported in patent US20050152835A1, “Technetium-99M glucarate methods of use for monitoring tissues” (priority 2003, published 2005).

How the values were obtained:
BT20 tumors = conditions: cited from earlier work
MCF7/D40 tumors = test: Biodistribution in mice bearing MCF7/D40 tumors; type: in vivo, SCID mice
Description: (§1) Tumor cell lines used. MCF7/S: Cells are parental, drug (doxorubicin) sensitive, breast carcinoma cells. MCF7/D40: Cells were generated in vitro by successive culturing parental MCF7 cells in slowly increasing concentrations of doxorubicin with a total selection time of 31 months. Twenty-eight SCID mice were studied. MCF7/S or MCF7/D40 tumors were grown for 10-14 days after subcutaneous injection of 1×10^6 cells into the right thigh. Groups of mice with the xenografted tumors included: (MCF7/S group: MIBI: n=9; GLA: n=8) and (MCF7/D40 group: MIBI: n=6; GLA: n=5).
(§2) ^99mTc-GLA or ^99mTc-MIBI (5-8 mCi, 185-296 MBq) was injected via a jugular vein catheter. Dynamic images were acquired for 2 hours. Twenty-four projections were obtained, one from each camera. Each scintillation event within the camera's NaI crystal was registered as the digitized outputs from the camera's four photomultiplier tubes. The four photomultiplier outputs were compared to a 20-bit look-up table derived from a calibration procedure that involved moving a collimated source across the camera face.
(§3) Tumors and organs were harvested and counted in a dose calibrator. The percent injected dose per gram (% ID/g) was calculated. Membrane preparations made from MCF7/S and MCF7/D40 tumors were immunoblotted with the mouse monoclonal antibody C219 against Pgp followed by a secondary antibody, which was detected by chemiluminescence. […] No immunodetectable MDR1 Pgp was presented in MCF7/S cells.

[1] = test system: plasmocytoma (localized myeloma); test: Scintigraphy of a patient with plasmocytoma of T8; type: in vivo, human
Description: A patient complaining of invalidation pain in the spine (mid-thorax) for about two months. Peak of monoclonal IgG-k in serum. Bence-Jones protein in urine. Spine CT. lytic lesion of T8, with soft tissue infiltration. […] Uptake was obvious in the early images, 15 and 30 min p.i., late acquisition, 6 hr p.i., made the tracer uptake much more obvious.

MCF7/S tumors = test: Biodistribution in mice bearing MCF7/S tumors; type: in vivo, SCID mice
Description: as §1, §2, §3

MCF7/S tumor xenograft = test: FASTSPECT dynamic imaging and tumor washout kinetics, drug-sensitive xenograft; type: in vivo, SCID mice
Description: as §1
The dynamic imaging system SPECT consisted of 24 small modular gamma cameras. Each modular camera consists of a 10 cm×10 cm NaI(Tl) scintillation crystal, 4 square (5 cm×5 cm) Hamamatsu photomultiplier tubes. The system included a cylindrical aperture with twenty four 1-mm diameter pinholes drilled in the aperture. A point source in the center of the field of view is projected simultaneously to the center of each camera. Total magnification is 3.5 in a 3.0 cm×3.2 cm×3.2 cm field of view. The spatial resolution of the system is about 1.0 mm, with a sensitivity of 13.3 cps/μCi.
as §2
Tumor image reconstruction was performed using 100 iterations of the maximum-likelihood expectation-maximization (ML-EM) algorithm. Using SlicerDicer software, three-dimensional images were computed to provide images in a 33×49×49 voxels format, and generate tomographic transaxial, coronal and sagittal slices with one-pixel thickness (1.0 mm). Regions of interest (ROI) over the tumors were created and applied to the dynamic images for determining time-activity curves. The percent washout rate relative to the peak uptake of the tumors were calculated.

[2] = Table 2, MCF7/D40 mice, 2 hours after injection
[3] = Table 4 (Example 3), MCF7/D40 mice
[4] = Table 2, MCF7/S mice, 2 hours after injection
[5] = Table 4 (Example 3), MCF7/S mice

## ^99mTc-glucarate
BT20 tumors; BT20 breast tumors
  tumor uptake compared with 99mTc-DTPA: significantly greater
BT20 tumors; twelve hours after intravenous injection
  tumor to non-tumor (shoulder region tissue) ratio: 20.53
BT20 tumors; xenografted BT20 tumors
  tumor uptake compared with 99mTc-sestamibi: significantly higher uptake
MCF7/D40 tumors; MCF7/D40 tumors, 2 hours after injection
  tumor-to-muscle ratio relative to that for 99mTc-sestamibi (fold higher): 19.2 fold
MCF7/D40 tumors; [2]
  Biodistribution, blood: 1.07 ± 0.14 % ID/gm
  Biodistribution, heart: 0.55 ± 0.10 % ID/gm
  Biodistribution, kidneys: 22.10 ± 1.59 % ID/gm
  Biodistribution, liver: 1.56 ± 0.18 % ID/gm
  Biodistribution, lung: 1.41 ± 0.54 % ID/gm
  Biodistribution, muscle: 0.25 ± 0.04 % ID/gm
  Biodistribution, tumor: 1.39 ± 0.12 % ID/gm
MCF7/D40 tumors; [3]
  Biodistribution, blood: 1.07 ± 0.14 % ID/g
  Biodistribution, heart: 0.55 ± 0.1 % ID/g
  Biodistribution, kidneys: 22.10 ± 1.59 % ID/g
  Biodistribution, liver: 1.56 ± 0.18 % ID/g
  Biodistribution, lung: 1.41 ± 0.54 % ID/g
  Biodistribution, muscle: 0.25 ± 0.04 % ID/g
  Biodistribution, tumor: 1.39 ± 0.12 % ID/g
  Tumor/Blood ratio: 1.38 ± 0.19
  Tumor/Muscle ratio: 6.23 ± 0.89
MCF7/D40 tumors; drug-resistant tumors (MCF7/D40)
  mean tumor-to-muscle ratio: 6.2
[1]; patient with lytic lesion of T8, posterior view
  scan finding at diagnosis: focally increase tracer uptake in the bone lesion and in soft tissue
[1]; posterior view
  scan finding after about 1 year of stabilization and external radiotherapy: normal physiologic tracer distribution, without areas of focally increased uptake
MCF7/S tumors; MCF7/S tumors, 2 hours after injection
  tumor-to-muscle ratio relative to that for 99mTc-sestamibi (fold higher): 9.4 fold
MCF7/S tumors; [4]
  Biodistribution, blood: 1.13 ± 0.16 % ID/gm
  Biodistribution, heart: 0.64 ± 0.08 % ID/gm
  Biodistribution, kidneys: 22.70 ± 1.38 % ID/gm
  Biodistribution, liver: 2.04 ± 0.37 % ID/gm
  Biodistribution, lung: 1.08 ± 0.10 % ID/gm
  Biodistribution, muscle: 0.27 ± 0.02 % ID/gm
  Biodistribution, tumor: 1.15 ± 0.17 % ID/gm
MCF7/S tumors; [5]
  Biodistribution, blood: 1.19 ± 0.17 % ID/g
  Biodistribution, heart: 0.70 ± 0.09 % ID/g
  Biodistribution, kidneys: 22.59 ± 1.38 % ID/g
  Biodistribution, liver: 2.10 ± 0.35 % ID/g
  Biodistribution, lung: 1.15 ± 0.11 % ID/g
  Biodistribution, muscle: 0.29 ± 0.02 % ID/g
  Biodistribution, tumor: 1.16 ± 0.17 % ID/g
  Tumor/Blood ratio: 1.13 ± 0.23
  Tumor/Muscle ratio: 4.37 ± 0.89
MCF7/S tumors; drug-sensitive tumors (MCF7/S)
  mean tumor-to-muscle ratio: 4.5
MCF7/S tumor xenograft
  two-hour fractional washout (% peak activity): 72.8±3.1%
MCF7/S tumor xenograft; FASTSPECT
  time after injection at which tumor was first visualized/detected: ≤ 5 min
MCF7/S tumor xenograft; FASTSPECT, 120 min acquisition
  time after injection until which tumor stayed visualized/detectable: at least 120 min
